Measured values published in US11524012B1, “Quinolone analogs and their salts, compositions, and method for their use” (Senhwa Biosciences, Inc., priority 2018, dated 2022).

Experiment: Stability study of lyophilized Compound I with mannitol (Method A / Method B samples)
Type: physicochemical
Conditions: Method B sample
Description: […] Each 30 mL Type I, clear glass sample vial with 20 mm Freeze Dry Stoppers (Flurotech™ coated) contained 150 mg of Compound I.
At each time point, a vial was removed from the stored condition and reconstituted with 10 mL of D5W and analyzed by HPLC method as discussed in Example 5 at 1 month, 2 months, 3 months, and/or 6 months. In Tables 18-18e, RRT matches the Compounds as shown below.
Sample Preparation—Method A: 10% Mannitol solution was prepared by weighing 200 g±1.0 g of mannitol into glass beaker, adding approximately 1500 mL of WFI (water for injection) to the beaker and stirring until mannitol was dissolved. The mannitol solution was transferred to a 2 L volumetric flask and made to volume with WFI, then poured back to the original beaker to sir and mix further. 1M HCl solution was prepared by adding 16.4 mL of HCl (37%) to a 200 mL volumetric flask containing approximately 100 mL of WFI, adding WFI to make 200 mL in volume, and inverting to mix the prepared solution.
To a tared 2 L Schott bottle containing a magnetic stirrer and wrapped in aluminum foil, 1020 g±1.0 g of the 10% mannitol solution was added. Then, 58.4 g±0.05 g of the 1M HCl solution was added to the 2 L Schott bottle and stirred for approximately 10 minutes. The solution prepared in the 2 L Schott bottle was purged with nitrogen which was continued throughout the manufacturing process. 30.22 g of Compound I (free base) was weighed then added to the 2 L Schott bottle containing 10% mannitol solution and 1 M HCl solution with continual magnetic stirring. The container used to weigh Compound I was rinsed with 3×10 mL of WFI and added to the Schott bottle. After Compound I dissolved (approximately 40 minutes), additional 650 g of WFI was added to the Schott bottle and the solution was stirred for approximately 10 minutes. The pH of the Compound I solution (in Schott bottle) was measured then adjusted to pH 4.5±0.1 using 1 M HCl solution. After each addition of 1 M HCl solution, the solution was stirred for several minutes prior to verifying the pH. Once the pH was adjusted, nitrogen purging was stopped. The pH adjusted Compound I solution was further diluted with WFI to a target weight of 2040 g±1.0 g and stirred.
The final solution (pH adjusted and diluted) was filtered (chain including PVD Fmembrane filter 0.45 μm and 0.22 μm; peristaltic filtration pump by Watson Marlow) in the Bigneat and the bottle containing the filtered solution was sealed. The filtered solution was pumped (Watson Marlow Flexicon PF6-B pump; 100 RPM) into 30 mL Schott Clear Glass vials (10.0 mL filtered solution each). The glass vials were partially stoppered with 20 mm Freeze Dry Stopper Flurotec (Daikyo Seiko) one vial at a time with sterilized utensils inside a fume hood (Envair B101+1.5R) and placed on freeze dryer trays. The freeze dryer trays were transferred into freeze dry chamber and vial probe was positioned (Lyostar II; FTS Kinetics). Lyophilization was performed using the lyophilization cycle listed below. After lyophilization cycle finished, the vials were back filled with N2 and the stopper was placed in situ, wiped down with isopropanol in the fume hood once removed from the freeze dryer, reconciled, then crimped. Seven vials out of 186 sample vials placed under the lyophilization cycle had smashed in the freeze dryer.
Sample Preparation—Method B (dissolved oxygen content ≤1 ppm): 2 L WFI was poured into a Schott bottled and degassed for 30 minutes with N2 until dissolved oxygen content was ≤1 ppm (dissolved oxygen meter and probe; Mettler Toledo). 10% Mannitol solution was prepared by adding […] of mannitol and 1000 mL of degassed WFI to a tared 2 L Schott bottle containing a magnetic stirrer and wrapped in aluminum foil. To the Schott bottle containing mannitol, 15 mL of 2M HCl was added and stirred for approximately 10 minutes. The resulting solution was sparged with N2 while stirring until dissolved oxygen content was ≤1 ppm (approx. 30 min). […]

[1] = −20° C., time not printed (2nd block, col 1)
[2] = −20° C., time not printed (2nd block, col 2)
[3] = −20° C., time not printed (2nd block, col 3)
[4] = −20° C., time not printed (2nd block, col 4)

Cc1cnc(CNC(=O)c2c(=O)c3ccc(N4CCCN(C)CC4)nc3n3c2sc2ccccc23)cn1 [Compound I, 2-(4-Methyl-[1,4]diazepan-1-yl)-5-oxo-5H-7-thia-1,11b-diaza-benzo[c]fluorene-6-carboxylic acid (5-methyl-pyrazin-2-ylmethyl)-amide]
Related Substances RRT 0.88 (25° C./60% RH, 24 months): 0.05% | Related Substances RRT 1.05 (25° C./60% RH, 24 months): 0.16% | Related Substances RRT 1.06 (25° C./60% RH, 24 months): 0.17% | Related Substances Total (25° C./60% RH, 24 months): Total: 0.4% | Water Content USP<921 Method 1c> (25° C./60% RH, 24 months): 1.33% | pH (USP<791>) (25° C./60% RH, 24 months): 4.4 | Appearance (25° C./60% RH, Initial): White | Appearance (Reconstituted Solution) (25° C./60% RH, Initial): Clear, colorless | Compound I by HPLC assay (25° C./60% RH, Initial): 100.2% | Related Substances RRT 0.96 (25° C./60% RH, Initial): 0.05% | Related Substances RRT 1.04 (25° C./60% RH, Initial): 0.05% | Related Substances RRT 1.06 (25° C./60% RH, Initial): 0.17% | Related Substances RRT 1.08 (25° C./60% RH, Initial): 0.06% | Related Substances Total (25° C./60% RH, Initial): Total: 0.3% | Water Content USP<921 Method 1c> (25° C./60% RH, Initial): 1.12% | pH (USP<791>) (25° C./60% RH, Initial): 4.6 | Appearance (−20° C., 1 month): White powder | Appearance (Reconstituted Solution) (−20° C., 1 month): Clear, colorless | Compound I by HPLC assay (−20° C., 1 month): 100.9% | Reconstitution Time (−20° C., 1 month): 65 s | Related Substances RRT 1.06 (−20° C., 1 month): RRT 1.06: 0.16% | Related Substances RRT 1.08 (−20° C., 1 month): RRT 1.08: 0.06% | Related Substances Total (−20° C., 1 month): Total: 0.2% | Water Content USP<921 Method 1c> (−20° C., 1 month): 1.13% | pH (USP<791>) (−20° C., 1 month): 4.4 | Appearance (−20° C., 3 months): Off-white powder | Appearance (Reconstituted Solution) (−20° C., 3 months): Clear, colorless | Compound I by HPLC assay (−20° C., 3 months): 99.5% | Related Substances RRT 1.04 (−20° C., 3 months): RRT 1.04: 0.08% | Related Substances RRT 1.05 (−20° C., 3 months): RRT 1.05: 0.18% | Related Substances Total (−20° C., 3 months): Total: 0.3% | Water Content USP<921 Method 1c> (−20° C., 3 months): 1.33% | pH (USP<791>) (−20° C., 3 months): 4.4 | Appearance (−20° C., 6 months): Off-white powder | Appearance (Reconstituted Solution) (−20° C., 6 months): Clear, colorless | Compound I by HPLC assay (−20° C., 6 months): 99.7% | Related Substances RRT 1.05 (−20° C., 6 months): RRT 1.05: 0.13% | Related Substances Total (−20° C., 6 months): Total: 0.1% | Water Content USP<921 Method 1c> (−20° C., 6 months): 1.24% | pH (USP<791>) (−20° C., 6 months): 4.5 | Appearance (−20° C., Initial): White powder | Appearance (Reconstituted Solution) (−20° C., Initial): Clear, colorless | Compound I by HPLC assay (−20° C., Initial): 100.2% | Related Substances RRT 0.96 (−20° C., Initial): RRT 0.96: 0.05% | Related Substances RRT 1.04 (−20° C., Initial): RRT 1.04: 0.05% | Related Substances RRT 1.06 (−20° C., Initial): RRT 1.06: 0.17% | Related Substances RRT 1.08 (−20° C., Initial): RRT 1.08: 0.06% | Related Substances Total (−20° C., Initial): Total:0.3% | Water Content USP<921 Method 1c> (−20° C., Initial): 1.12% | pH (USP<791>) (−20° C., Initial): 4.6 | Appearance [1]: Off-white powder | Appearance (Reconstituted Solution) [1]: Clear, colorless | Compound I by HPLC assay [1]: 100.8% | Related Substances RRT 1.05 [1]: RRT 1.05: 0.13% | Related Substances Total [1]: Total: 0.1% | Water Content USP<921 Method 1c> [1]: 1.30% | pH (USP<791>) [1]: 4.6 | Appearance [2]: Off-white powder | Appearance (Reconstituted Solution) [2]: Clear, colorless | Compound I by HPLC assay [2]: 101.9% | Related Substances RRT 1.05 [2]: RRT 1.05: 0.13% | Related Substances Total [2]: Total: 0.1% | Water Content USP<921 Method 1c> [2]: 1.29% | pH (USP<791>) [2]: 4.5 | Appearance [3]: Off-white powder | Appearance (Reconstituted Solution) [3]: Clear, colorless | Compound I by HPLC assay [3]: 101.3% | Related Substances RRT 1.05 [3]: RRT 1.05: 0.12% | Related Substances Total [3]: Total: 0.1% | Water Content USP<921 Method 1c> [3]: 1.10% | pH (USP<791>) [3]: 4.5 | Appearance [4]: Off-white powder | Appearance (Reconstituted Solution) [4]: Clear, colorless | Compound I by HPLC assay [4]: 98.1% | Related Substances RRT 1.05 [4]: RRT 1.05: 0.10% | Related Substances Total [4]: Total: 0.1% | Water Content USP<921 Method 1c> [4]: 1.10% | pH (USP<791>) [4]: 4.4
